Assay results taken from patent publication US10456477B2, “Oligolactic acid conjugates and micelles with enhanced anticancer efficacy” (Wisconsin Alumni Research Foundation, priority 2016, dated 2019).
≈ marks a conversion by molar mass, not a printed value. Where “and” joins values, the source holds several entries; their conditions need not be identical. Equal values may be shown once. Read-outs that look alike come from different tables or passages of the source.

Key:
A549 NSCLC cell line = test: IC50 values and combination index analysis of PTX, SEL and RAP alone and in combination; format: cell-based, human; settings: alone or combination at molar ratio PTX:SEL 2:3, PTX:RAP 2:1, SEL:RAP 3:1, PTX:SEL:RAP 2:3:1
Experimental: The cells were seeded into a 96-well plate at a seeding density of 1,500 cells/100 μL/well and cultured in RPMI 1640 medium at 37° C. in 5% CO2 incubator for 24 h. […] Each was added into the wells to attain a final concentrations of 0.1, 1, 10, 100, and 1000 nM. The final level of DMSO in the medium was <0.1% at all drug levels. Cells cultured with diluted DMSO or PBS in medium were used as controls. Drug treated cells were placed in an incubator at 5% CO2 at 37° C. for 72 h. The medium in each well was aspirated, and 100 μL of 20% (v/v) CellTiter-Blue reagent in serum free RPMI medium was added, followed by incubation at 37° C. in 5% CO2 atmosphere for 1.5 h. Fluorescence intensity was measured by a SpectraMax M2 plate reader (Molecular Devices, CA) with excitation and emission at 560 and 590 nm, respectively. The half maximal inhibitory drug concentration (IC50) was determined by using GraphPad Prism version 5.00 for Windows (GraphPad Software, CA).
In vitro anticancer activity of PTX, SEL, and RAP alone and in combination.

[1] = Physical stability of drug- or conjugate-loaded PEG-b-PLA micelles (precipitation); settings: for Stability: PEG-b-PLA micelles; for time until SEL precipitated out of PEG-b-PLA micelles: micelles containing unconjugated SEL alone
Experimental: Instead, loading efficiency of PTX was low, ca. 21%, and drug loading for PEG-b-PLA micelles leveled off at 11.2% drug loading.
SEL drug loading for PEG-b-PLA micelles was 1% with a very low drug loading efficiency of 5%. […] In contrast, the PEG-b-PLA micelles containing unconjugated SEL were unstable and SEL precipitated out within about 5 minutes.

[2] = Drug loading efficiency, drug loading content and aqueous solubility of PEG-b-PLA micelles by RP-HPLC; format: physicochemical
Experimental: The polymeric film was dissolved by addition of sterile water or PBS (10 mM, pH 7.4), followed by centrifugation for 5 min at 13,000 rpm and sterile filtration (0.22 μm (Coring, N.Y.)).

[3] = Hydrodynamic diameter of PEG-b-PLA micelles by dynamic light scattering; format: physicochemical
Experimental: Proton nuclear magnetic resonance (^1H NMR) data were recorded on a Varian Unity-Inova two-channel 400 MHz NMR spectrometer (Palo Alto, Calif.) with regulated temperature at 25° C. Chemical shifts (δ) were reported in parts per million (ppm) relative to residual protonated solvent resonance at 7.26 ppm for CDCl3. Mass spectrometry data was obtained using the Waters LCT (ESI-TOF) in the Chemical Instrumentation Center in the Department of Chemistry, University of Wisconsin-Madison. Samples were sprayed from a 10 mM NH4OAc/CH3CN solution. Reverse-phase HPLC (RP-HPLC) analysis was carried out using a Shimadzu Prominence HPLC system (Shimadzu, Japan) equipped with an LC-20AT pump, a SIL-20AC HT autosampler, a CTO-20AC column oven, and a SPD-M20A diode array detector. Sample was separated by a Waters Symmetry Shield™ RP18 column (4.6 mm×250 mm, 5 μm, 100 Å). 10 μL of sample was injected at a flow rate of 0.8 mL/min, column temperature at 25° C., and UV detection wavelength at 227 nm. The separation of o(LA)n-PTX conversion products was done in gradient mode with organic phase containing 100% CH3CN as solvent A, and aqueous phase containing 100% milliQ water as solvent B. Gradient elution was employed as follows: 0 min, 50% solvent A and 50% solvent B; 35 min, 95% solvent A and 5% solvent B; and 40 min for equilibration. Hydrodynamic diameters of PEG-b-PLA micelles were measured by dynamic light scattering (DLS) using a Zetasizer Nano-ZS (Malvern Instruments Inc., UK) at 25° C. with a detection angle of […] and a He—Ne ion laser as the light source (4 mW, 633 nm). Prior to measurements, PEG-b-PLA micelle solutions were diluted with milliQ water or PBS (10 mM, pH 7.4) to afford the level of PEG-b-PLA at ˜0.1 mg/mL and 1 mL of each sample was placed into a disposable sizing cuvette (BRAND Polystyrene Cuvettes). The cumulant method was used to curve-fit the correlation function, and the z-average diameter and polydispersity index (PDI) of PEG-b-PLA micelles were calculated from the Stokes-Einstein equation and the slope of the correlation function, respectively. All measurements were performed in triplicate.

[4] = tested on: human A549 non-small lung cancer cells; test: In vitro cytotoxicity, CellTiter-Blue Cell Viability Assay; format: cell-based; settings: free form, 72 h
Excerpt: All chemicals were purchased from Sigma-Aldrich (St. Louis, Mo.) and used as received. Analytical grade organic solvents and all other reagents were purchased from Fisher Scientific (Pittsburgh, Pa.). PTX was purchased from LC Laboratories (Woburn, Mass.). PEG-b-PLA was purchased from Advanced Polymer Materials Inc. (Montreal, Canada): Mn of PEG and PLA was 4,000 and 2,200 g/mol, respectively; PDI 1.05. A549 human lung adenocarcinoma cells were purchased from ATCC (Manassas, Va.) and grown in RPMI 1640 medium supplemented with 10% fetal bovine serum (FBS), 100 IU/mL penicillin, 100 μg/mL streptomycin, and 2 mML-glutamine in 5% CO2 incubator at 37° C.
Each was added into the wells to attain a final concentrations of 0.1, 1, 10, 100, and 1000 nM. The final level of DMSO in the medium was <0.1% at all drug levels. Cells cultured with diluted DMSO or PBS in medium were used as controls. […] The medium in each well was aspirated, and 100 μL of 20% (v/v) CellTiter-Blue reagent in serum free RPMI medium was added, followed by incubation at 37° C. in 5% CO2 atmosphere for 1.5 h. Fluorescence intensity was measured by a SpectraMax M2 plate reader (Molecular Devices, CA) with excitation and emission at 560 and 590 nm, respectively. The half maximal inhibitory drug concentration (IC50) was determined by using GraphPad Prism version 5.00 for Windows (GraphPad Software, CA).

[5] = In vitro release from PEG-b-PLA micelles (dialysis cassette); format: physicochemical
Experimental: Four dialysis cassettes were placed in 4 L PBS solution (10 mM, pH 7.4) on a Corning Hotplate Stirrer (Corning, N.Y.) at 37° C. […] At each time point, a sample of 100 μL was withdrawn, and the cassettes were replenished with 100 μL of fresh PBS solution (10 mM, pH 7.4). The external medium was replaced with 4 L of fresh buffer at 2, 4, 8, 12, 24 and 48 h to approximate sink conditions.

[6] = tested on: A549 xenograft tumor model; test: In vivo antitumor efficacy in A549 xenograft tumor model; parameters: species or system female athymic nude mice; settings: PEG-b-PLA micelles, 20 mg/kg, weekly tail vein injection, 3 weekly injections and one week off x 3 cycles
Experimental: All animal experiments were conducted under the protocol approved by Institutional Animal Care and Use Committee in University of Wisconsin-Madison in accordance with institutional and NIH guidance for the Care and Use of Laboratory Animals. 6-8 week-old female athymic nude mice (20-25 g each) were acquired from laboratory animal resources at School of Medicine and Public Health, University of Wisconsin-Madison. Mice were housed in ventilated cages with free access to water and food and acclimated for 1 week prior tumor cell injection. A549 cells (2×10^6 cells in 100 μL of serum-free RPMI 1640 medium) were harvested from sub-confluent cultures after trypsinization and were injected subcutaneously into the right flank of each mouse. […] Drug conjugates were administered via tail vein for 3 weekly injections, followed by 1-week rest period, totaling 3 cycles over a 12 weeks period. Body weight and tumor volume were monitored over the course of study. Tumor volume was calculated using the formula: V=(a×b^2)/2, where V is tumor volume, a is tumor length, b is tumor width.

[7] = Table 1C, drug to polymer ratio 1:5
[8] = Table 1C, PEG-b-PLA micelles, drug to polymer ratio 1:5
[9] = Table 2, PTX, SEL and RAP co-loaded as 3-in-1 micelle, initial level 1, 1.5, 0.5 mg, molar ratio 2:6:1, 21 mg PEG4000-b-PLA2200
[10] = Table 1A, PEG-b-PLA micelles, drug to polymer ratio 1:10, initial level 1 mg, mean ± SD, n = 3
[11] = Table 1B, drug to polymer ratio 1:1
[12] = Table 1B, drug to polymer ratio 1:5
[13] = Table 1B, drug to polymer ratio 1:10
[14] = Table 1B, PEG-b-PLA micelles, drug to polymer ratio 1:1
[15] = Table 1B, PEG-b-PLA micelles, drug to polymer ratio 1:5
[16] = Table 1B, PEG-b-PLA micelles, drug to polymer ratio 1:10

For `Cn1cnc2c(F)c(Nc3ccc(Br)cc3Cl)c(C(=O)NOCCO)cc21` [SEL, selumetinib], the IC50 (A549 NSCLC cell line) was 1729 ± 1.6 nM, the Stability [1, 7] was under 2 h and the “time until SEL precipitated out of PEG-b-PLA micelles” value [1] was at most 5 min. The “time until SEL precipitated out of PEG-b-PLA micelles” value ([1]; listed as selumetinib) was “about 5 minutes”, the “drug loading, loaded in micelles with free paclitaxel and free rapamycin” value ([2]; 3-drug co-loading) was “greater than 6 wt %” and the Drug loading [2, 8] was 1%. The Drug loading efficiency [2, 8] was 5% and 5.1%, the Drug loading [2, 9] was 6.3% and the Loading efficiency [2, 9] was 100% and 101.7%. The solubility ([2]; aqueous with cosolvent or surfactant or cyclodextrin, Table 1C, PEG-b-PLA micelles, drug to polymer ratio 1:5, read-out: Apparent solubility) was 100 µg/mL, the “drug loading, loaded alone in micelles” value ([2]; free selumetinib alone) was “about 1 wt %” and the Particle size [3, 7] was 60.6 ± 0.6 nm.
With `CC(=O)O[C@H]1C(=O)[C@@]2(C)[C@H]([C@H](OC(=O)c3ccccc3)[C@]3(O)C[C@H](OC(=O)[C@H](O)[C@@H](NC(=O)c4ccccc4)c4ccccc4)C(C)=C1C3(C)C)[C@]1(OC(C)=O)CO[C@@H]1C[C@@H]2O` [PTX, paclitaxel] the IC50 [4] was 2 nM, the IC50 (A549 NSCLC cell line) was 7.4 ± 1.2 nM and the “precipitation of PTX during in vitro release” value ([5]; 9% drug loading, particle size 30 nm, PEG-b-PLA micelles) was under 4 h. The “in vitro release from PEG-b-PLA micelles (in words)” value ([5]; PBS 10 mM, pH 7.4, 37° C., FIG. 4) was “rapidly released”, the “micelles precipitating in” value ([1]; PEG-b-PLA micelles at room temperature) was “less than 2 hours” and the “tumor growth / tumor volume” value [6] was “tumor growth inhibition during treatment over 71 days and delayed tumor growth”. The solubility ([2]; PEG-b-PLA micelles in water, aqueous with cosolvent or surfactant or cyclodextrin, Table 1A, PEG-b-PLA micelles, drug to polymer ratio 1:10, initial level 1 mg, mean ± SD, n = 3, read-out: Apparent solubility) was 900 µg/mL, the solubility ([2]; PEG-b-PLA micelles in water, aqueous with cosolvent or surfactant or cyclodextrin, Table 1A, PEG-b-PLA micelles, drug to polymer ratio 3:5, initial level 6 mg, mean ± SD, n = 3, read-out: Apparent solubility) was 1200 ± 100 µg/mL and the Drug loading [2, 10] was 8.6% and 8.6 ± 1.1%. The Drug loading efficiency [2, 10] was 93.8 ± 12.8%, the Drug loading ([2]; Table 1A, PEG-b-PLA micelles, drug to polymer ratio 3:5, initial level 6 mg, mean ± SD, n = 3) was 11.2% and 11.2 ± 1.1% and the Drug loading [2, 9] was 4.3%. The Loading efficiency [2, 9] was 100% and 104%, the solubility ([2]; water, PTX without PEG-b-PLA micelles, read-out: water solubility) was about 10 µg/mL (≈ 11.7 µM) and the “Particle size” value ([3]; Table 1A, drug to polymer ratio 1:10, initial level 1 mg, 10 mg PEG-b-PLA, mean ± SD, n = 3) was 30.5 nm and 30.5 ± 0.3 nm. For the same molecule, the “Particle size” value ([3]; Table 1A, drug to polymer ratio 3:5, initial level 6 mg, 10 mg PEG-b-PLA, mean ± SD, n = 3) was 37.0 ± 5.7 nm.
`CO[C@H]1C[C@@H]2CC[C@@H](C)[C@@](O)(O2)C(=O)C(=O)N2CCCC[C@H]2C(=O)O[C@H]([C@H](C)C[C@@H]2CC[C@@H](O)[C@H](OC)C2)CC(=O)[C@H](C)/C=C(\C)[C@@H](O)[C@@H](OC)C(=O)[C@H](C)C[C@H](C)/C=C/C=C/C=C/1C` [RAP, rapamycin] showed an IC50 (A549 NSCLC cell line) of 320.6 ± 2.3 nM, a Stability [1, 11] of under 24 h and a Stability [1, 12] of under 24 h. The Stability [1, 13] was under 24 h, the “micelles released drug in” value ([1]; all PEG-b-PLA micelles containing unconjugated RAP) was “less than 24 hours” and the solubility ([2]; PEG-b-PLA micelles, aqueous with cosolvent or surfactant or cyclodextrin, Table 1B, PEG-b-PLA micelles, drug to polymer ratio 1:1, read-out: Apparent solubility) was 500 µg/mL. The solubility ([2]; PEG-b-PLA micelles, aqueous with cosolvent or surfactant or cyclodextrin, Table 1B, PEG-b-PLA micelles, drug to polymer ratio 1:5, read-out: Apparent solubility) was 900 µg/mL, the solubility ([2]; PEG-b-PLA micelles, aqueous with cosolvent or surfactant or cyclodextrin, Table 1B, PEG-b-PLA micelles, drug to polymer ratio 1:10, read-out: Apparent solubility) was 1400 µg/mL and the Drug loading [2, 14] was 11.5%. The Drug loading efficiency [2, 14] was 23%, the Drug loading [2, 15] was 7.3% and the Drug loading efficiency [2, 15] was 44.0%. For the same molecule, the Drug loading [2, 16] was 6.4%, the Drug loading efficiency [2, 16] was 70.1% and the Drug loading [2, 9] was 2.2%. The Loading efficiency [2, 9] was 100% and 104.6%, the Particle size [3, 11] was 59.5 ± 21.6 nm and the Particle size [3, 12] was 36.2 ± 0.4 nm. For the same molecule, the Particle size [3, 13] was 37.7 ± 1.9 nm.
